Experimental data as given in US7645752B2, “Sulfonyl substituted 1H-indoles as ligands for the 5-hydroxytryptamine receptors” (Wyeth LLC, priority 2006, dated 2010).
Like-named read-outs stand apart in the source and are kept apart here.

Biological target: T1, human cloned 5-HT6 receptors (Homo sapiens, UniProt P50406)
T1 construct: expressed in transfected cells; host or cells: HeLa cells
Assay: 5-HT6 binding affinity, [3H]-LSD displacement on membranes of Hela cells
Settings: for inhibition at 1 µM: read-out: % inhibition at 1 micromole
Experimental: The affinity of test compounds for the 5-HT6 receptor is evaluated in the following manner. Cultured Hela cells expressing human cloned 5-HT6 receptors are harvested and centrifuged at low speed (1,000×g) for 10.0 min to remove the culture media. The harvested cells are suspended in half volume of fresh physiological phosphate buffered saline solution and recentrifuged at the same speed. This operation is repeated. The collected cells are then homogenized in ten volumes of 50 mM Tris.HCl (pH 7.4) and 0.5 mM EDTA. The homogenate is centrifuged at 40,000×g for 30.0 min and the precipitate is collected. The obtained pellet is resuspended in 10 volumes of Tris.HCl buffer and recentrifuged at the same speed. The final pellet is suspended in a small volume of Tris.HCl buffer and the tissue protein content is determined in aliquots of 10-25 microliter volumes. […] The volume of the suspended cell membranes is adjusted to give a tissue protein concentration of 1.0 mg/mL of suspension. The prepared membrane suspension (10 times concentrated) is aliquoted in 1.0 mL volumes and stored at −70° C. until used in subsequent binding experiments.
Binding experiments are performed in a 96 well microtiter plate format in a total volume of 200 microliters. […] The test compounds are added in 20.0 microliter volume.
The bound complex caught on the filter disk is allowed to air dry and the radioactivity is measured in a Packard TopCount® equipped with six photomultiplier detectors, after the addition of 40.0 microliter Microscint®-20 scintillant to each shallow well.
Binding in the presence of varying concentrations of test compound is expressed as a percentage of specific binding in the absence of test compound. The results are plotted as log % bound versus log concentration of the test compound.

[1] = Table 1, [3H]-LSD 3.0 nM, Hela cell membranes, read-out: Ki (nM) @ 5-HT6 receptor
[2] = Table 1, 5-HT6 binding, at 1 micromole

T1 sequence (P50406 whole entry): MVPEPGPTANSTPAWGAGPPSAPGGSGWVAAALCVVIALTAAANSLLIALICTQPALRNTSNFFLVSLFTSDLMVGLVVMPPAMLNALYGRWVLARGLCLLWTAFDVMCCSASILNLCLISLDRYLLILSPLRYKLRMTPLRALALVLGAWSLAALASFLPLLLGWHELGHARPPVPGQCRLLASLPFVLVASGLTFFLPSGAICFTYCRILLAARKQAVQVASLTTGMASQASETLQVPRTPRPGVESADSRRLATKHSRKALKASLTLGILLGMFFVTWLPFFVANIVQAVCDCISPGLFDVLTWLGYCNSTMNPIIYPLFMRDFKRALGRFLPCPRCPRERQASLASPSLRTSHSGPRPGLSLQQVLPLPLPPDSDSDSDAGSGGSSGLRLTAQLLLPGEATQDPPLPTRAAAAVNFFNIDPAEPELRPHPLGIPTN

Ki [1] [nM]	inhibition at 1 µM [2] [%]	SMILES	also measured
–	42	CN(C)CCCNCCc1cccc2[nH]cc(S(=O)(=O)c3cccc(F)c3)c12 [Example 83, N′-{2-[3-(3-Fluorophenylsulfonyl)-1H-indol-4-yl]-ethyl}-N,N-dimethyl-propane-1,3-diamine]	–
–	63	CCC(CC)NCCc1ccc2c(S(=O)(=O)c3ccccc3)c[nH]c2c1 [Example 103, (1-Ethyl-propyl)-{2-[3-(phenylsulfonyl)-1H-indol-6-yl]-ethyl}-amine]	–
–	51	O=S(=O)(c1ccccc1)c1c[nH]c2cc(CCNC3CCCCC3)ccc12 [Example 94, N-{2-[3-(phenylsulfonyl)-1H-indol-6-yl]ethyl}cyclohexanamine]	–
–	72	O=S(=O)(c1cccc(F)c1)c1c[nH]c2cccc(CCNCC3CCCO3)c12 (stereo not drawn) [Example 82, N-{2-[3-(3-fluorophenylsulfonyl)-1H-indol-4-yl]ethyl}-N-((tetrahydrofur-2-yl)methyl)amine]	–
–	73	CN(CCO)CCc1cccc2[nH]cc(S(=O)(=O)c3cccc(F)c3)c12 [Example 84, 2-({2-[3-(3-Fluorophenylsulfonyl)-1H-indol-4-yl]-ethyl}-methyl-amino)-ethanol]	–
–	78	CC(C)NCCc1ccc2c(S(=O)(=O)c3ccccc3)c[nH]c2c1 [Example 90, N-{2-[3-(phenylsulfonyl)-1H-indol-6-yl]ethyl}propan-2-amine]	–
–	71	O=S(=O)(c1ccccc1)c1c[nH]c2cc(CCNC3CCCC3)ccc12 [Example 93, N-{2-[3-(phenylsulfonyl)-1H-indol-6-yl]ethyl}cyclopentanamine]	–
–	55	O=S(=O)(c1ccccc1)c1c[nH]c2cc(CCN3CCNCC3)ccc12 [Example 101, 3-phenylsulfonyl-6-(2-piperazin-1-yl-ethyl)-1H-indole]	–
10	–	NCCc1ccc2c(S(=O)(=O)c3ccccc3)c[nH]c2c1 [Example 109, {2-[3-(phenylsulfonyl)-1H-indol-6-yl]ethyl}amine]	–
41.3	–	CN(C)CCc1ccc2c(S(=O)(=O)c3ccccc3)c[nH]c2c1 [Example 86, N,N-dimethyl-N-{2-[3-(phenylsulfonyl)-1H-indol-6-yl]ethyl}amine]	–
–	55	CC(NCCc1ccc2c(S(=O)(=O)c3ccccc3)c[nH]c2c1)C(C)(C)C (stereo not drawn) [Example 105, N-{2-[3-(phenylsulfonyl)-1H-indol-6-yl]ethyl}-N-(1,2,2-trimethylpropyl)amine]	–
–	72	CC(C)CNCCc1ccc2c(S(=O)(=O)c3ccccc3)c[nH]c2c1 [Example 102, N-isobutyl-N-{2-[3-(phenylsulfonyl)-1H-indol-6-yl]ethyl}amine]	–
85	–	O=S(=O)(c1ccccc1)c1c[nH]c2cc(CCNCC3CCCO3)ccc12 (stereo not drawn) [Example 107, N-{2-[3-(phenylsulfonyl)-1H-indol-6-yl]ethyl}-N-((tetrahydrofur-2-yl)methyl)amine]	–
10.5	–	CNCCc1ccc2c(S(=O)(=O)c3ccccc3)c[nH]c2c1 [Example 87, N-methyl-N-{2-[3-(phenylsulfonyl)-1H-indol-6-yl]ethyl}amine]	–
118	–	CCN(C)CCc1ccc2c(S(=O)(=O)c3ccccc3)c[nH]c2c1 [Example 95, N-ethyl-N-methyl-N-{2-[3-(phenylsulfonyl)-1H-indol-6-yl]ethyl}amine]	–
41	–	O=S(=O)(c1ccccc1)c1c[nH]c2cc(CCNC3CC3)ccc12 [Example 91, N-{2-[3-(phenylsulfonyl)-1H-indol-6-yl]ethyl}cyclopropanamine]	–
–	75	O=S(=O)(c1ccccc1)c1c[nH]c2cc(CCNC3CCC3)ccc12 [Example 92, N-{2-[3-(phenylsulfonyl)-1H-indol-6-yl]ethyl}cyclobutanamine]	–
150	–	CCCNCCc1ccc2c(S(=O)(=O)c3ccccc3)c[nH]c2c1 [Example 89, N-{2-[3-(phenylsulfonyl)-1H-indol-6-yl]ethyl}-N-propylamine]	–

The remaining lines, values behind:

SMILES	Ki [1] [nM]	inhibition at 1 µM [2] [%]	also measured
CN(C)CCc1cccc2c(S(=O)(=O)c3ccccc3)c[nH]c12 [Example 18, N,N-dimethyl-N-{2-[3-(phenylsulfonyl)-1H-indol-7-yl]ethyl}amine]	2.3	–	–
O=S(=O)(c1ccccc1)c1c[nH]c2ccc(CCNC3CC3)cc12 [Example 4, N-{2-[3-(phenylsulfonyl)-1H-indol-5-yl]ethyl}cyclopropanamine]	15	–	–
CCN(C)CCc1cccc2c(S(=O)(=O)c3ccccc3)c[nH]c12 [Example 24, N-ethyl-N-methyl-N-{2-[3-(phenylsulfonyl)-1H-indol-7-yl]ethyl}amine]	11	–	–
O=S(=O)(c1ccccc1)c1c[nH]c2ccc(CCNCc3ccccc3)cc12 [Example 6, N-benzyl-N-{2-[3-(phenylsulfonyl)-1H-indol-5-yl]ethyl}amine]	24	–	–
O=S(=O)(c1ccccc1)c1c[nH]c2ccc(CCNC3CCCC3)cc12 [Example 5, N-{2-[3-(phenylsulfonyl)-1H-indol-5-yl]ethyl}cyclopentanamine]	37	–	–
O=S(=O)(c1ccccc1)c1c[nH]c2ccc(CCN3CCCC3)cc12 [Example 9, 3-(phenylsulfonyl)-5-(2-pyrrolidin-1-ylethyl)-1H-indole]	28	–	–
O=S(=O)(c1cccc(F)c1)c1c[nH]c2cccc(CCNC3CCC3)c12 [Example 68, N-{2-[3-(3-fluorophenylsulfonyl)-1H-indol-4-yl]ethyl}cyclobutanamine]	23.5	–	–
CCCNCCc1ccc2[nH]cc(S(=O)(=O)c3ccccc3)c2c1 [Example 2, N-{2-[3-(phenylsulfonyl)-1H-indol-5-yl]ethyl}-N-propylamine]	–	–	Ki: 34.7 nM
NCCc1cccc2c(S(=O)(=O)c3ccccc3)c[nH]c12 [Example 29, {2-[3-(phenylsulfonyl)-1H-indol-7-yl]ethyl}amine]	1.5	–	–
NCCc1ccc2[nH]cc(S(=O)(=O)c3ccccc3)c2c1 [Example 12, {2-[3-(phenylsulfonyl)-1H-indol-5-yl]ethyl}amine]	–	–	Ki: 7 nM
CCNCCc1cccc2[nH]cc(S(=O)(=O)c3cccc(F)c3)c12 [Example 64, N-ethyl-N-{2-[3-(3-fluorophenylsulfonyl)-1H-indol-4-yl]ethyl}amine]	–	57	–
CN(CCc1cccc2[nH]cc(S(=O)(=O)c3cccc(F)c3)c12)C1CCCCC1 [Example 72, N-cyclohexyl-N-methyl-N-{2-[3-(3-fluorophenylsulfonyl)-1H-indol-4-yl]ethyl}amine]	–	66	–
CC(C)NCCc1ccc2[nH]cc(S(=O)(=O)c3ccccc3)c2c1 [Example 3, N-{2-[3-(phenylsulfonyl)-1H-indol-5-yl]ethyl}propan-2-amine]	–	–	Ki: 56.7 nM
O=S(=O)(c1ccccc1)c1c[nH]c2ccc(CCN3CCCCC3)cc12 [Example 10, 3-(phenylsulfonyl)-5-(2-piperidin-1-ylethyl)-1H-indole]	10.3	–	–
CCCNCCc1cccc2[nH]cc(S(=O)(=O)c3cccc(F)c3)c12 [Example 65, N-{2-[3-(3-fluorophenylsulfonyl)-1H-indol-4-yl]ethyl}-N-propylamine]	–	67	–
O=S(=O)(c1ccccc1)c1c[nH]c2c(CCN3CCCC3)cccc12 [Example 26, 3-(phenylsulfonyl)-7-(2-pyrrolidin-1-ylethyl)-1H-indole]	18	–	–
CN(C)CCc1cccc2[nH]cc(S(=O)(=O)c3cccc(F)c3)c12 [Example 62, N,N-dimethyl-N-{2-[3-(3-fluorophenylsulfonyl)-1H-indol-4-yl]ethyl}amine]	–	–	inhibition at 1 µM: 72%
CCN(CC)CCc1cccc2[nH]cc(S(=O)(=O)c3cccc(F)c3)c12 [Example 73, N,N-diethyl-N-{2-[3-(3-fluorophenylsulfonyl)-1H-indol-4-yl]ethyl}amine]	–	78	–
CC(C)NCCc1cccc2c(S(=O)(=O)c3ccccc3)c[nH]c12 [Example 21, N-{2-[3-(phenylsulfonyl)-1H-indol-7-yl]ethyl}propan-2-amine]	9.4	–	–
CC(C)CNCCc1cccc2[nH]cc(S(=O)(=O)c3cccc(F)c3)c12 [Example 77, N-isobutyl-N-{2-[3-(3-fluorophenylsulfonyl)-1H-indol-4-yl]ethyl}amine]	14	–	–
O=S(=O)(c1cccc(F)c1)c1c[nH]c2cccc(CCN3CCOCC3)c12 [Example 76, 4-(2-morpholin-4-ylethyl)-3-(3-fluorophenylsulfonyl)-1H-indole]	–	62	–
CC(C)NCCc1cccc2[nH]cc(S(=O)(=O)c3cccc(F)c3)c12 [Example 66, N-{2-[3-(3-fluorophenylsulfonyl)-1H-indol-4-yl]ethyl}propan-2-amine]	–	58	–
CCN(C)CCc1cccc2[nH]cc(S(=O)(=O)c3cccc(F)c3)c12 [Example 71, N-ethyl-N-methyl-N-{2-[3-(3-fluorophenylsulfonyl)-1H-indol-4-yl]ethyl}amine]	116	–	–
O=S(=O)(c1ccccc1)c1c[nH]c2c(CCN3CCOCC3)cccc12 [Example 28, 7-(2-morpholin-4-ylethyl)-3-(phenylsulfonyl)-1H-indole]	99	–	–
